Structures can show the parent of a compound that is named as a salt.

One series can be described thus: Stability. Type of series: physicochemical. Conditions: unsalted acid form.
Another series relates to Klebsiella aerogenes. As to the kind of experiment: Antibiotic activity in arbitrary units. Type of series: cell-based. As for the experimental part:
The material produced above was arbitrarily assigned an activity of 340 l/ml. Assays were determined as described in Description 3.

The test system of the next series is carbonic anhydrase. As to the kind of experiment: Enzyme inhibition (selectivity). Type of series: biochemical. Conditions: at concentrations in excess of those required to inhibit the β-lactamase of E. coli.
Another series deals with urease. As to the kind of experiment: Enzyme inhibition (selectivity). Type of series: biochemical. The settings on record: at concentrations in excess of those required to inhibit the β-lactamase of E. coli.
A further series concerns tyrpsin. Nature of the series: Enzyme inhibition (selectivity). Type of series: biochemical. Conditions: at concentrations in excess of those required to inhibit the β-lactamase of E. coli.
A further series deals with chymotrypsin. As to the kind of experiment: Enzyme inhibition (selectivity). Type of series: biochemical. The settings on record: at concentrations in excess of those required to inhibit the β-lactamase of E. coli.
The test system of a further series is monoamine oxidase. Nature of the series: Enzyme inhibition (selectivity). The settings on record: at concentrations in excess of those required to inhibit the β-lactamase of E. coli. Type of series: biochemical.
Series [1] deals with β-lactamases produced by Escherichia coli, Klebsiella aerogenes and Staphylococcus aureus. Nature of the series: Inhibition of β-lactamases of various species. Type of series: biochemical.
For the next series, the system named is dopa decarboxylase. As to the kind of experiment: Enzyme inhibition (selectivity). Type of series: biochemical. The settings on record: at concentrations in excess of those required to inhibit the β-lactamase of E. coli.

As for `CC(=O)N/C=C/SC1=C(C(=O)O)N2C(=O)C(C(C)OS(=O)(=O)O)C2C1` (stereo not shown) [MM 13902], in the series “Stability”, the stability result is on record as “tends to be unstable”. The activity in the series on Klebsiella aerogenes (partially purified salt, after XAD 4) is listed as 37,000 units/mg.

Turning to `CC(=O)N/C=C/SC1=C(C(=O)O)N2C(=O)C(C(C)OS(=O)(=O)O)C2C1` (stereo not shown) [di-sodium salt of MM 13902], in the series with Klebsiella aerogenes (yellowish powder after cellulose chromatography), the activity is given as 73,000 units/mg.

Take `CC(=O)N/C=C/[S+]([O-])C1=C(C(=O)O)N2C(=O)C(C(C)OS(=O)(=O)O)C2C1` (stereo not shown) [MM 4550A]: the enzyme inhibition entry in the series with carbonic anhydrase, in the series on urease, in the series with tyrpsin, in the series with chymotrypsin, in the series on monoamine oxidase and in the series on dopa decarboxylase was “does not inhibit” throughout. Further, in series [1], the “enzyme inhibitory activity against β-lactamases” value was “possesses enzyme inhibitory activity”.
